Tests used:
Type in all cases: cell-based
HIV-1 ADA = test: Infectivity of virions from HIV-1 ADA-infected macrophages on indicator P4-CCR5 cells; settings: TO-901317 500 nM from day 7 after infection for 7 more days; virions adjusted according to p24; versus virions from untreated cells
Method: (§1) Human monocyte-derived macrophages were infected with HIV-1 ADA or mock-infected, and 7 days after infection were treated or not with LXR agonist, TO-901317 (500 nM), for 7 more days.
B—Virions were collected from culture supernatants of LXR agonist-treated and untreated (control) cells on day 10 and day 14 (pooled together), adjusted according to p24 content and analyzed for infectivity on indicator P4-CCR5 cells. Experiment was performed in triplicate and results (mean±SD) are presented as percent infectivity of virions produced by control cells; *p<0.001.
(§2) To determine whether impairment of cholesterol efflux has a role in HIV biology, we compared infectivity of HIV virions produced from monocyte-derived macrophages stimulated or not with an LXR agonist, TO-901317. We hypothesized that if impairment of cholesterol efflux is a specific mechanism to increase HIV replication, then agents counteracting this effect should have anti-HIV activity. […] Virions were collected from TO-901317-treated and untreated cells, adjusted according to p24 content, and analyzed for infectivity using indicator P4-CCR5 cells.
Infectivity assay. Virus infectivity was analyzed using P4-CCR5 indicator cells that express B-galactosidase under control of HIV-1 LTR. […] The plate was incubated at 37° C. for 1.5 hours and OD readings were taken at 420 nm.

HIV-1 ADA virions = test: Analysis of virion-associated cholesterol ([3H]cholesterol incorporation into virions); settings: virions from macrophages treated with 500 nM TO-901317 versus untreated cells; normalized according to p24
Method: C—Incorporation of [^3H]cholesterol into virions produced by LXR agonist-treated and untreated (control) cells was measured in triplicate and results (mean±SD) are presented relative to cholesterol in the virions produced by control cells; *p<0.001.
as §2, with “activity. LXR agonists up-regulate expression of ABCA1 at a transcriptional level and stimulate cholesterol efflux from various cell types, including human monocyte-derived macrophages ([47] and FIG. 9A).” for “activity.”
Analysis of virion-associated cholesterol. […] Culture supernatants were collected every 3 days over the period of 2 weeks, pooled, and virions were pelleted by ultracentrifugation, normalized according to p24 value, and the amount of incorporated [^3H]cholesterol counted on a beta-counter.

[1] = test system: Human monocyte-derived macrophages infected with HIV-1 ADA; test: Cholesterol efflux to apoA-I from HIV-1 ADA-infected monocyte-derived macrophages; settings: TO-901317 500 nM added at day 7 after infection, kept 7 more days; efflux measured on day 21 after infection
Method: as §1
A—Cholesterol efflux to apoA-I was measured on day 21 after infection. *p<0.01 (versus uninfected cells not treated with TO-901317), *p<0.01 (versus HIV-infected cells not treated with TO-901317).
as §2, with “activity. LXR agonists up-regulate expression of ABCA1 at a transcriptional level and stimulate cholesterol efflux from various cell types, including human monocyte-derived macrophages ([47] and FIG. 9A).” for “activity.”
Cholesterol and phospholipid efflux from RAW264.7 cells. […] For cholesterol efflux analysis, aliquots of medium and cells were counted. […] The efflux was calculated as radioactivity in the medium/(radioactivity in the medium+radioactivity remaining in the cells)×100%. […]

Which “reduction of infectivity of virions produced from macrophages treated with LXR agonist” value (HIV-1 ADA) does the source give for `O=S(=O)(c1ccccc1)N(CC(F)(F)F)c1ccc(C(O)(C(F)(F)F)C(F)(F)F)cc1` [TO-901317] here?
The value was “about 80%”.

What about the virion-associated cholesterol (HIV-1 ADA virions) of the same compound?
Its virion-associated cholesterol is “significantly diminished”.

And the “effect on impairment of cholesterol efflux to apoA-I by HIV-1 infection” value [1]?
The value was “prevented the impairment of cholesterol efflux”.

From patent US8470526B2, “Method of suppressing human immunodeficiency virus (HIV) replication in a subject by administering a liver X receptor (LXR) agonist” (The George Washington University, priority 2005, dated 2013)
